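How tested: cells in 96-well plates exposed to compound for 48 hours at five concentrations. GI50 = concentration required for 50% inhibition of growth. The concentration for full growth arrest is given as TGI.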 A value given as a limit tells only on which side of the number the result lay.

In the first experiment the test system is DU-145 prostate. Description: growth of human tumour cells (NCI), 48 h.
Regarding `CCC1(C(=O)OC(C)(C)C)OC12C(C)CCCC2C` (stereo unspecified), the TGI was greater than 100 µM.

On to `Cc1ccc(-c2cc(N)n(-c3nc4c(c(=O)n(C)c(=O)n4C)n3C)n2)cc1`, for which the TGI was greater than 100 µM.

In turn, `O=C(Cc1ccccc1)NN1C(=O)/C(=C\c2cccc(O)c2)SC1=Nc1ccccc1` yielded a TGI greater than 100 µM.

Regarding `CN(C)c1ccc(C2SCC(=O)N2NS(=O)(=O)c2cccc(C(=O)O)c2)cc1` (stereo unspecified), the TGI is greater than 100 µM.

`CC1CCOc2ccc(cc2)C=Nc2ccc(cc2)CCc2ccc(cc2)N=Cc2ccc(cc2)OCC1` (stereo unspecified): the TGI was greater than 100 µM.

As for `O=C1c2ccccc2-c2nc(-c3cccc([N+](=O)[O-])c3)nnc21`, the TGI amounted to 17 µM.

Take `CC(=O)N1N=C(c2ccc3ccccc3c2O)CC1C(=O)c1ccco1` (stereo unspecified): the TGI was greater than 100 µM.

In turn, `N#Cc1nc(-c2cccs2)oc1N` gave a TGI greater than 100 µM.

With `NC(=O)NNC(=O)c1nc[nH]c1[N+](=O)[O-]`, the TGI is greater than 100 µM.

In the case of `O=c1c2c([N+](=O)[O-])cccc2nc2[nH]c3ccccc3n12`, the TGI was greater than 75 µM.

In turn, `N#C/C(=C\n1ccc(=O)[nH]c1=S)C(N)=O` showed a TGI greater than 100 µM.

In the case of `O=C(OCC1OC2OC(c3ccccc3)(n3ccc4c([N+](=O)[O-])ccnc43)OC2C1OC(=O)c1ccccc1)c1ccccc1` (stereo unspecified), the TGI was greater than 100 µM.

The molecule `Cc1ccc(/C(O)=C/C(=O)C(=O)/C=C(\O)c2ccc(C)cc2C)c(C)c1` yielded a TGI of 5.43 µM.

For the molecule `O=C(NCCCCCCNCc1cccc2ccccc12)Nc1cccc2ccccc12`, the TGI was greater than 100 µM.

As for `Cc1ccc([C@H]2CC(=O)C[C@H](c3ccc(C)cc3)C23C(=O)c2ccccc2C3=O)cc1`, the TGI was greater than 100 µM.

In the case of `O=c1c2ncn(COCCCl)c2n(-c2ccccc2)c(=S)n1-c1ccccc1`, the TGI was greater than 100 µM.

Consider `O=C(O)c1ccc(S(=O)(=O)c2ccccc2[N+](=O)[O-])cc1`, for which the TGI is greater than 10 µM.

With `COc1ccc(/C=N/N=C(\N)NO)c(O)c1`, the TGI is greater than 10 µM.

In the case of `OCC1OC(n2cnc3c(Cl)nc(Nc4ccccc4)nc32)CC1O` (stereo unspecified), the TGI is greater than 100 µM.

In turn, `CC1(CF)SCc2nc3ccccc3n21` (stereo unspecified) came in with a TGI greater than 100 µM.

Turning to `C[C@]12CCc3nc(Nc4ccccc4)sc3C1=CC[C@@H]1[C@@H]2CC[C@]2(C)/C(=N/NC(N)=S)CC[C@@H]12`, the GI50 was 2.96 µM and the TGI was greater than 100 µM.

`O=C1NC(N/N=C/C(O)C(O)C(O)CO)=N/C1=C\c1ccco1` (stereo unspecified) gave a TGI greater than 100 µM.

For `Cc1ccn2c(=O)cc(-c3ccccc3)nc2c1`, the TGI was greater than 100 µM.

For `CCn1nc2c3c(ncn3C(C)(C)O2)c1=O`, the TGI is greater than 100 µM.

`CCCCCC(=O)NC(=S)Nc1nn[nH]n1` came in with a TGI greater than 100 µM.

In turn, `CCc1ccc2oc(-c3cc(O)c(-c4nc5cc(CC)ccc5o4)cc3O)nc2c1` yielded a TGI greater than 100 µM.

`Cc1cn(C2CC(n3cc(Cn4cc(Br)c(=O)[nH]c4=O)nn3)C(CO)O2)c(=O)[nH]c1=O` (stereo unspecified) yielded a TGI greater than 100 µM.

The subject of the next experiment is EKVX NSCLC. Description: growth of human tumour cells (NCI), 48 h.
`CCC1(C(=O)OC(C)(C)C)OC12C(C)CCCC2C` (stereo unspecified) displayed a TGI greater than 100 µM.

In the case of `Cc1ccc(-c2cc(N)n(-c3nc4c(c(=O)n(C)c(=O)n4C)n3C)n2)cc1`, the TGI is greater than 100 µM.

In turn, `O=C(Cc1ccccc1)NN1C(=O)/C(=C\c2cccc(O)c2)SC1=Nc1ccccc1` had a TGI greater than 100 µM.

The molecule `CN(C)c1ccc(C2SCC(=O)N2NS(=O)(=O)c2cccc(C(=O)O)c2)cc1` (stereo unspecified) displayed a TGI greater than 100 µM.

Molecule `CC1CCOc2ccc(cc2)C=Nc2ccc(cc2)CCc2ccc(cc2)N=Cc2ccc(cc2)OCC1` (stereo unspecified) showed a TGI greater than 100 µM.

In turn, `O=C1c2ccccc2-c2nc(-c3cccc([N+](=O)[O-])c3)nnc21` had a TGI of 61.1 µM.

`N#Cc1nc(-c2cccs2)oc1N` displayed a TGI greater than 100 µM.

`NC(=O)NNC(=O)c1nc[nH]c1[N+](=O)[O-]`: the TGI was greater than 100 µM.

Molecule `O=c1c2c([N+](=O)[O-])cccc2nc2[nH]c3ccccc3n12` yielded a TGI greater than 75 µM.

Molecule `N#C/C(=C\n1ccc(=O)[nH]c1=S)C(N)=O` yielded a TGI greater than 100 µM.

In turn, `O=C(OCC1OC2OC(c3ccccc3)(n3ccc4c([N+](=O)[O-])ccnc43)OC2C1OC(=O)c1ccccc1)c1ccccc1` (stereo unspecified) returned a TGI greater than 100 µM.

Take `Cc1ccc(/C(O)=C/C(=O)C(=O)/C=C(\O)c2ccc(C)cc2C)c(C)c1`: the TGI came out at 5.56 µM.

As to `O=C(NCCCCCCNCc1cccc2ccccc12)Nc1cccc2ccccc12`, the TGI was greater than 100 µM.

`Cc1ccc([C@H]2CC(=O)C[C@H](c3ccc(C)cc3)C23C(=O)c2ccccc2C3=O)cc1`: the TGI was greater than 100 µM.

`O=c1c2ncn(COCCCl)c2n(-c2ccccc2)c(=S)n1-c1ccccc1`: the TGI was greater than 100 µM.

`O=C(O)c1ccc(S(=O)(=O)c2ccccc2[N+](=O)[O-])cc1` returned a TGI greater than 10 µM.

Regarding `COc1ccc(/C=N/N=C(\N)NO)c(O)c1`, the TGI was greater than 10 µM.

For `OCC1OC(n2cnc3c(Cl)nc(Nc4ccccc4)nc32)CC1O` (stereo unspecified), the TGI was found to be 8.15 µM.

Turning to `CC1(CF)SCc2nc3ccccc3n21` (stereo unspecified), the TGI was greater than 100 µM.

For the molecule `C[C@]12CCc3nc(Nc4ccccc4)sc3C1=CC[C@@H]1[C@@H]2CC[C@]2(C)/C(=N/NC(N)=S)CC[C@@H]12`, the GI50 is 19.2 µM and the TGI was greater than 100 µM.

On to `O=C1NC(N/N=C/C(O)C(O)C(O)CO)=N/C1=C\c1ccco1` (stereo unspecified), for which the TGI is greater than 100 µM.

`Cc1ccn2c(=O)cc(-c3ccccc3)nc2c1` had a TGI greater than 100 µM.

Consider `CCn1nc2c3c(ncn3C(C)(C)O2)c1=O`, for which the TGI was greater than 100 µM.

On to `CCCCCC(=O)NC(=S)Nc1nn[nH]n1`, for which the TGI was greater than 100 µM.

In turn, `CCc1ccc2oc(-c3cc(O)c(-c4nc5cc(CC)ccc5o4)cc3O)nc2c1` displayed a TGI greater than 100 µM.

Molecule `Cc1cn(C2CC(n3cc(Cn4cc(Br)c(=O)[nH]c4=O)nn3)C(CO)O2)c(=O)[nH]c1=O` (stereo unspecified) had a TGI greater than 100 µM.

The subject of another experiment is MDA-MB-231 breast. Description: growth of human tumour cells (NCI), 48 h.
`CCC1(C(=O)OC(C)(C)C)OC12C(C)CCCC2C` (stereo unspecified) registered a TGI greater than 100 µM.

Take `Cc1ccc(-c2cc(N)n(-c3nc4c(c(=O)n(C)c(=O)n4C)n3C)n2)cc1`: the TGI was greater than 100 µM.

For the molecule `O=C(Cc1ccccc1)NN1C(=O)/C(=C\c2cccc(O)c2)SC1=Nc1ccccc1`, the TGI was greater than 100 µM.

As to `CN(C)c1ccc(C2SCC(=O)N2NS(=O)(=O)c2cccc(C(=O)O)c2)cc1` (stereo unspecified), the TGI was greater than 100 µM.

The molecule `CC1CCOc2ccc(cc2)C=Nc2ccc(cc2)CCc2ccc(cc2)N=Cc2ccc(cc2)OCC1` (stereo unspecified) came in with a TGI greater than 100 µM.

`O=C1c2ccccc2-c2nc(-c3cccc([N+](=O)[O-])c3)nnc21` gave a TGI greater than 100 µM.

With `CC(=O)N1N=C(c2ccc3ccccc3c2O)CC1C(=O)c1ccco1` (stereo unspecified), the TGI was greater than 100 µM.

On to `N#Cc1nc(-c2cccs2)oc1N`, for which the TGI is greater than 100 µM.

Consider `NC(=O)NNC(=O)c1nc[nH]c1[N+](=O)[O-]`, for which the TGI was greater than 100 µM.

Consider `O=c1c2c([N+](=O)[O-])cccc2nc2[nH]c3ccccc3n12`, for which the TGI came to 31.7 µM.

Consider `N#C/C(=C\n1ccc(=O)[nH]c1=S)C(N)=O`, for which the TGI is greater than 100 µM.
